Our source for the EC50 values is patent US20240246937A1 (MERCK SHARP & DOHME LLC, priority 2021, published 2024).

The EC50 is the concentration that produces a half-maximal response.

recombinant IL4I1, sequence (Q96RQ9 22-567): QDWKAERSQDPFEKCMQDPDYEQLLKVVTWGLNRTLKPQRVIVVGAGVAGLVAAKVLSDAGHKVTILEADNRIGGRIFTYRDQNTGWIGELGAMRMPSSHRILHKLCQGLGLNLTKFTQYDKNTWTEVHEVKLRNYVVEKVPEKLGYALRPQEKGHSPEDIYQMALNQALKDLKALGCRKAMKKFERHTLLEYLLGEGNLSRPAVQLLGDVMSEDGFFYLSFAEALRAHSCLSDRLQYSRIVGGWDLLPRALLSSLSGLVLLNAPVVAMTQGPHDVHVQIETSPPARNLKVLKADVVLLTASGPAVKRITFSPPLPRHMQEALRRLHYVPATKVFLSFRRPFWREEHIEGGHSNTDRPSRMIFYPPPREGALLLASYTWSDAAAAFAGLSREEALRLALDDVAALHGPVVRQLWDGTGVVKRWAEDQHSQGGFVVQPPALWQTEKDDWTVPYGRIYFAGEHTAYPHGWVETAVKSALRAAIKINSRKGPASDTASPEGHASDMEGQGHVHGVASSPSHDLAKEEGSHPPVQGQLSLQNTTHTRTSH

This test concerns the target recombinant IL4I1 (Homo sapiens (Human), UniProt Q96RQ9). The test can be described thus: IL4I1 Enzymatic Assay (Amplex Red/HRP coupled fluorescence detection of H2O2). Format: biochemical. The conditions noted are these: 240 min; recombinant IL4I1, four-hour pre-incubation with compound. In short, it runs like this:
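Recombinant human IL4I1 (1 nM final) pre-incubated 4 h with compound at ambient temperature in 50 mM Hepes pH 7.0, 0.005% Tween20. Started with 1 mM each Phe/Tyr/Trp plus Amplex Red/HRP; H2O2-derived resorufin fluorescence read after 120 min; EC50 from ten-point 1:3 titration, four-parameter fit.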
As to `O=C1C(=O)N(C2CCC2)CCN1Cc1ccc(-c2nccs2)nn1` [Example 365, 1-cyclobutyl-4-((6-(thiazol-2-yl)pyridazin-3-yl)methyl)piperazine-2,3-dione], the EC50 was determined as 17 nM. For the compound `O=c1c(=O)n(C23CC(C2)C3)ccn1Cc1ccc(-c2nccs2)nn1` [Example 366, 1-(bicyclo[1.1.1]pentan-1-yl)-4-((6-(thiazol-2-yl)pyridazin-3-yl)methyl)-1,4-dihydropyrazine-2,3-dione], the EC50 was 9 nM. Turning to `O=c1c(=O)n(C2CCC2)ccn1Cc1ccc(-c2nccs2)nn1` [Example 367, 1-cyclobutyl-4-((6-(thiazol-2-yl)pyridazin-3-yl)methyl)-1,4-dihydropyrazine-2,3-dione], the EC50 was determined as 9 nM. On to `O=C1C(=O)N(C2CCCC2)CCN1Cc1ccc(-c2ccccn2)nn1` [Example 368, 1-cyclopentyl-4-((6-(pyridin-2-yl)pyridazin-3-yl)methyl)piperazine-2,3-dione], for which the EC50 worked out at 28 nM. With `O=C1C(=O)N(C2CCC2)CCN1Cc1nnc(-c2ccccn2)s1` [Example 369, 1-cyclobutyl-4-((5-(pyridin-2-yl)-1,3,4-thiadiazol-2-yl)methyl)piperazine-2,3-dione], the EC50 was 32 nM.

With `O=c1c(=O)n(C2CCC2)ccn1Cc1nnc(-c2ccccn2)s1` [Example 370, 1-cyclobutyl-4-((5-(pyridin-2-yl)-1,3,4-thiadiazol-2-yl)methyl)-1,4-dihydropyrazine-2,3-dione], the EC50 was 20 nM.

Turning to `O=c1c(=O)n([C@H]2C[C@H]3C[C@H]3C2)ccn1Cc1ncc(-c2nccs2)cc1F` [Example 371, 1-((cis)-bicyclo[3.1.0]hexan-3-yl)-4-((3-fluoro-5-(thiazol-2-yl)pyridin-2-yl)methyl)-1,4-dihydropyrazine-2,3-dione], the EC50 was 42 nM. For the compound `O=c1c(=O)n([C@H]2C[C@@H](c3ccccc3)C2)ccn1Cc1nnc(-c2nccs2)s1` [Example 372, 1-((cis)-3-phenylcyclobutyl)-4-((5-(thiazol-2-yl)-1,3,4-thiadiazol-2-yl)methyl)-1,4-dihydropyrazine-2,3-dione], the half-maximal effective concentration (EC50) stood at 23 nM. In the case of `O=c1c(=O)n(C2CCC2)ccn1Cc1cc(-c2ccccn2)on1` [Example 373, 1-cyclobutyl-4-((5-(pyridin-2-yl)isoxazol-3-yl)methyl)-1,4-dihydropyrazine-2,3-dione], the EC50 came out at 8 nM. Consider `O=C1C(=O)N([C@H]2C[C@H]3C[C@H]3C2)CCN1Cc1ccc(-c2nccs2)nn1` [Example 374, 1-((cis)-bicyclo[3.1.0]hexan-3-yl)-4-((6-(thiazol-2-yl)pyridazin-3-yl)methyl)piperazine-2,3-dione], for which the EC50 is 8 nM. `O=c1c(=O)n([C@H]2C[C@H]3C[C@H]3C2)ccn1Cc1cc(-c2ccccn2)on1` [Example 375, 1-((cis)-bicyclo[3.1.0]hexan-3-yl)-4-((5-(pyridin-2-yl)isoxazol-3-yl)methyl)-1,4-dihydropyrazine-2,3-dione]: the EC50 is 6 nM. In the case of `O=C1C(=O)N(C2CCC2)CCN1Cc1ncc(-c2ccccn2)s1` [Example 376, 1-cyclobutyl-4-((5-(pyridin-2-yl)thiazol-2-yl)methyl)piperazine-2,3-dione], the EC50 is 14 nM. In the case of `CC1(n2ccn(Cc3ccc(-c4nccs4)nn3)c(=O)c2=O)CC1` [Example 377, 1-(1-methylcyclopropyl)-4-((6-(thiazol-2-yl)pyridazin-3-yl)methyl)-1,4-dihydropyrazine-2,3-dione] it was 71 nM; in that of `O=C1C(=O)N(C2CCCC2)CCN1Cc1ncc(-n2nccn2)cn1` [Example 378, 1-((5-(2H-1,2,3-triazol-2-yl)pyrimidin-2-yl)methyl)-4-cyclopentylpiperazine-2,3-dione], 138 nM. In the case of `O=C1C(=O)N(C2CCCC2)CCN1Cc1ccc(-n2nccn2)cc1F` [Example 379, 1-cyclopentyl-4-(2-fluoro-4-(2H-1,2,3-triazol-2-yl)benzyl)piperazine-2,3-dione], the EC50 worked out at 24 nM. Regarding `O=C1C(=O)N(C2CCCC2)CCN1Cc1ccc(-n2nccn2)cn1` [Example 380, 1-((5-(2H-1,2,3-triazol-2-yl)pyridin-2-yl)methyl)-4-cyclopentylpiperazine-2,3-dione], the EC50 stood at 17 nM. Regarding `CC1(n2ccn(Cc3ccc(-n4cccn4)cn3)c(=O)c2=O)CC1` [Example 381, 1-((5-(1H-pyrazol-1-yl)pyridin-2-yl)methyl)-4-(1-methylcyclopropyl)-1,4-dihydropyrazine-2,3-dione], the EC50 came out at 40 nM.

Take `O=c1c(=O)n(C23CC(C2)C3)ccn1Cc1ccc(-n2cccn2)cn1` [Example 382, 1-((5-(1H-pyrazol-1-yl)pyridin-2-yl)methyl)-4-(bicyclo[1.1.1]pentan-1-yl)-1,4-dihydropyrazine-2,3-dione]: the EC50 worked out at 25 nM. Consider `CC1(n2ccn(Cc3ccc(-n4cccn4)nc3)c(=O)c2=O)CC1` [Example 383, 1-((6-(1H-pyrazol-1-yl)pyridin-3-yl)methyl)-4-(1-methylcyclopropyl)-1,4-dihydropyrazine-2,3-dione], for which the EC50 worked out at 26 nM. Consider `O=c1c(=O)n(C23CC(C2)C3)ccn1Cc1ccc(-n2cccn2)nc1` [Example 384, 1-((6-(1H-pyrazol-1-yl)pyridin-3-yl)methyl)-4-(bicyclo[1.1.1]pentan-1-yl)-1,4-dihydropyrazine-2,3-dione], for which the EC50 worked out at 9 nM. Take `CC1(n2ccn(Cc3ccc(-n4ccnn4)cn3)c(=O)c2=O)CC1` [Example 385, 1-((5-(1H-1,2,3-triazol-1-yl)pyridin-2-yl)methyl)-4-(1-methylcyclopropyl)-1,4-dihydropyrazine-2,3-dione]: the EC50 came to 42 nM. `N#CC1(n2ccn(Cc3ccc(-n4cccn4)cn3)c(=O)c2=O)CC1` [Example 386, 1-(4-((5-(1H-pyrazol-1-yl)pyridin-2-yl)methyl)-2,3-dioxo-3,4-dihydropyrazin-1(2H)-yl)cyclopropane-1-carbonitrile]: the EC50 is 225 nM. Regarding `N#CC1(n2ccn(Cc3ccc(-n4ccnn4)cn3)c(=O)c2=O)CC1` [Example 387, 1-(4-((5-(1H-1,2,3-triazol-1-yl)pyridin-2-yl)methyl)-2,3-dioxo-3,4-dihydropyrazin-1(2H)-yl)cyclopropane-1-carbonitrile], the EC50 worked out at 677 nM.

Consider `O=c1c(=O)n(C23CC(C2)C3)ccn1Cc1ccc(-n2ccnn2)cn1` [Example 388, 1-((5-(1H-1,2,3-triazol-1-yl)pyridin-2-yl)methyl)-4-(bicyclo[1.1.1]pentan-1-yl)-1,4-dihydropyrazine-2,3-dione], for which the EC50 came to 23 nM. As for `N#CC1(n2ccn(Cc3ccc(-n4cccn4)nc3)c(=O)c2=O)CC1` [Example 389, 1-(4-((6-(1H-pyrazol-1-yl)pyridin-3-yl)methyl)-2,3-dioxo-3,4-dihydropyrazin-1(2H)-yl)cyclopropane-1-carbonitrile], the EC50 was 369 nM. For `N#CC1(n2ccn(Cc3ccc(-n4ccnn4)nc3)c(=O)c2=O)CC1` [Example 390, 1-(4-((6-(1H-1,2,3-triazol-1-yl)pyridin-3-yl)methyl)-2,3-dioxo-3,4-dihydropyrazin-1(2H)-yl)cyclopropane-1-carbonitrile], the EC50 is 343 nM. As to `N#CC1(n2ccn(Cc3ccc(-n4nccn4)nc3)c(=O)c2=O)CC1` [Example 391, 1-(4-((6-(2H-1,2,3-triazol-2-yl)pyridin-3-yl)methyl)-2,3-dioxo-3,4-dihydropyrazin-1(2H)-yl)cyclopropane-1-carbonitrile], the EC50 is 170 nM.

Regarding `O=C1C(=O)N(C2CCCC2)CCN1Cc1ccc(N2CCC(F)(F)C2)nc1` [Example 392, 1-cyclopentyl-4-((6-(3,3-difluoropyrrolidin-1-yl)pyridin-3-yl)methyl)piperazine-2,3-dione], the EC50 amounted to 31 nM. With `O=C1C(=O)N(C2CCCC2)CCN1Cc1ccc(N2CCC(F)C2)nc1` (stereo not shown) [Example 393, 1-cyclopentyl-4-((6-(3-fluoropyrrolidin-1-yl)pyridin-3-yl)methyl)piperazine-2,3-dione], the EC50 is 33 nM.

As for `O=C1C(=O)N(C2CCC2)CCN1Cc1ccc(-c2cnco2)nn1` [Example 394, 1-cyclobutyl-4-((6-(oxazol-5-yl)pyridazin-3-yl)methyl)piperazine-2,3-dione], the EC50 is 31 nM. Under `O=C1C(=O)N(C2CCC2)CCN1Cc1ccc(-c2cncs2)nn1` [Example 395, 1-cyclobutyl-4-((6-(thiazol-5-yl)pyridazin-3-yl)methyl)piperazine-2,3-dione] stands 8 nM.

For the compound `O=c1c(=O)n(C2CCC2)ccn1Cc1nnc(-c2ccccc2)s1` [Example 396, 1-cyclobutyl-4-((5-phenyl-1,3,4-thiadiazol-2-yl)methyl)-1,4-dihydropyrazine-2,3-dione], the EC50 worked out at 5 nM.

In the case of `O=c1c(=O)n(C2CCC2)ccn1Cc1ccc(-n2nccn2)cn1` [Example 397, 1-((5-(2H-1,2,3-triazol-2-yl)pyridin-2-yl)methyl)-4-cyclobutyl-1,4-dihydropyrazine-2,3-dione], the EC50 turned out to be 11 nM. Regarding `O=C1C(=O)N(C2CCC2)CCN1Cc1ccc(-n2nccn2)nn1` [Example 398, 1-((6-(2H-1,2,3-triazol-2-yl)pyridazin-3-yl)methyl)-4-cyclobutylpiperazine-2,3-dione], the EC50 amounted to 22 nM. As for `O=C1C(=O)N(C2CCC2)CCN1Cc1ccc(-n2nccn2)cc1` [Example 399, 1-(4-(2H-1,2,3-triazol-2-yl)benzyl)-4-cyclobutylpiperazine-2,3-dione], the EC50 turned out to be 19 nM. `O=C1C(=O)N(C2CCC2)CCN1Cc1ncc(-n2nccn2)cc1F` [Example 400, 1-cyclobutyl-4-((3-fluoro-5-(2H-1,2,3-triazol-2-yl)pyridin-2-yl)methyl)piperazine-2,3-dione]: the EC50 was found to be 25 nM. For `O=C1C(=O)N(C23CC(C2)C3)CCN1Cc1ccc(-n2nccn2)nn1` [Example 401, 1-((6-(2H-1,2,3-triazol-2-yl)pyridazin-3-yl)methyl)-4-(bicyclo[1.1.1]pentan-1-yl)piperazine-2,3-dione], the EC50 was 48 nM.
